SMILES strings stand for the structures. Activity calls are given as the source filed them.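 How the source made its calls: active means compounds giving half or more protection of infected cells from virus-caused growth loss, again on retest; inactive means the rest.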

Experimental findings from PubChem BioAssay AID179 (DTP/NCI, 2004) are described below.

The experiment has as its system CEM cells HIV-1 protection, formazan growth assay. As to the kind of experiment: NCI AIDS Antiviral Assay. The settings on record: for IC50: measured here: growth of uninfected CEM cells. An outline of the steps:
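Protection of CEM cells against HIV-1 measured as cell growth via soluble formazan read-out, with five concentrations tested on both infected and uninfected cells; failure to protect may reflect toxicity.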

With `Cc1cc(C)nc(SC(F)(F)c2nc3ccccc3o2)n1`, the outcome was active.

Consider `O=C1OCCOC(=O)c2cccc(n2)C(=O)OCCOC(=O)c2cccc1n2`, for which the EC50 (as a rule, the concentration giving half of the maximal effect) is 22.9 µM and the IC50 (usually the concentration that gives 50% inhibition) was found to be 25.7 µM.

Regarding `Oc1cc(O)c2c(-c3c(O)c(-c4ccc(O)c(O)c4)[o+]c4cc(O)cc(O)c34)c(O)c(-c3ccc(O)c(O)c3)[o+]c2c1`, the outcome was inactive.

As for `CC(C)(C)C1CCP(=O)(c2ccccc2)CC1` (configuration not stated), the EC50 was 0.0631 µM and the IC50 is over 200 µM.

Consider `Cc1cn([C@@H]2O[C@H](CO[Si](C)(C)C(C)(C)C)[C@]3(O[C@H]3C(=O)NN)[C@H]2O[Si](C)(C)C(C)(C)C)c(=O)[nH]c1=O`, for which the EC50 is over 200 µM and the IC50 came to 3.63 µM.

Take `[Cl][Sn]([Cl])([c]1ccccc1)[c]1ccccc1`: the result was inactive.

Consider `CCC[CH2][Ge]([CH2]CCC)([CH2]CCC)[O]C(=O)C(O)c1ccccc1` (configuration not stated), for which the EC50 was 4.9 µM and the IC50 turned out to be 12 µM.

As to `C=C1C(=O)OC2CC1(C)OCC2[C@H]1CCC2C3CC=C4CC=CC(=O)[C@]4(C)C3CC[C@@]21C` (some centres not stated), the EC50 is over 155 µM and the IC50 was found to be 3.31 µM.

As to `CC(C)C(=O)/C=C/c1ccc(Br)cc1`, the result was inactive.

With `CCOC(=O)c1ccc(CSc2ccc(N)cc2)c([N+](=O)[O-])c1`, the EC50 was over 40.7 µM and the IC50 was over 40.7 µM.

As to `CC1=NN(C(=O)CC(=O)Nc2ccc(Cl)cc2)C(=O)C1N=Nc1ccc(S(=O)(=O)c2ccc(N=NC3C(=O)N(C(=O)CC(=O)Nc4ccc(Cl)cc4)N=C3C)cc2)cc1` (configuration not stated), the EC50 was over 50.1 µM and the IC50 was over 50.1 µM.

Take `CN1CCc2ccccc2C(C(=O)c2ccc3c(c2)OCO3)C1=O` (configuration not stated): the EC50 was over 155 µM and the IC50 turned out to be 107 µM.

Consider `Cc1ccc2oc(=O)c(C#N)c(/C=C\c3ccccc3O)c2c1`, for which the EC50 is over 100 µM and the IC50 turned out to be 5.62 µM.

In the case of `CCCCCCCCCCCCCCCCCC(CCCCCCCCCCCCCCCCC)OP(=O)(O)O`, the result was inactive.

In the case of `COc1cc2cnc3c4cc(OC)c(OC)cc4ccc3c2cc1OC`, the outcome was inactive.

For the compound `Cc1ccc(NC(=S)N/C=C(\c2ccccc2)S(=O)Cc2ccccc2)c(C)c1` (configuration not stated), the EC50 was over 200 µM and the IC50 came to 93.3 µM.

Turning to `Cc1ccc(C23c4ccccc4CCN2C(=O)C3N)cc1` (configuration not stated), the EC50 was over 603 µM and the IC50 worked out at 117 µM.

In the case of `COC(=O)N/N=C(\c1nc2ccc(Cl)cc2[nH]c1=O)C(O)c1ccc([N+](=O)[O-])cc1` (configuration not stated), the EC50 is over 575 µM and the IC50 turned out to be 550 µM.

On to `O=C1c2ccccc2C(=O)N1N1CC1Br` (configuration not stated), for which the EC50 is over 200 µM and the IC50 is over 200 µM.

On to `CCC1(CC)COP(=S)([S][Sb]([O]C(C)=O)[S]P2(=S)OCC(CC)(CC)CO2)OC1`, for which the EC50 was over 57.5 µM and the IC50 came to 9.33 µM.

As to `COc1cc2cc(C(=O)N3CC(CCl)c4ccc(N)cc43)[nH]c2c(OC)c1OC` (configuration not stated), the EC50 is over 1.51 µM and the IC50 was 0.295 µM.

In the case of `CCCCCCCCCCCCCCCC(=O)Nc1ccn(C2CCC(COP(=O)(O)OC3CC(n4cc(C)c(=O)[nH]c4=O)OC3CO)O2)c(=O)n1` (configuration not stated), the EC50 was 0.0933 µM and the IC50 is 45.7 µM.

For the compound `Cc1c(C(=O)C(=O)c2ccccc2)c(C)c(C(=O)C(=O)c2ccccc2)c(C)c1C(=O)C(=O)c1ccccc1`, the EC50 was over 200 µM and the IC50 is over 200 µM.

Regarding `CC(C)Oc1nc(N2CCNCC2)nc2c1CCC2`, the EC50 is over 200 µM and the IC50 amounted to 39.8 µM.

Consider `Cc1ccc(NC(=O)CC2C(=O)Nc3ccccc3S2(=O)=O)c(C)c1` (configuration not stated), for which the EC50 was over 4.07 µM and the IC50 is over 4.07 µM.

For `CC(=O)Nc1cc2c(s1)CCC1CC(=O)NN=C21` (configuration not stated), the EC50 was over 200 µM and the IC50 was over 200 µM.

`O=C(CSc1nnc(Cc2ccccc2)o1)Nc1ccc(Cl)cc1`: the EC50 was over 100 µM and the IC50 turned out to be 72.4 µM.

In the case of `CC1(OCc2ccccc2)C(=O)N2C1N(C(=O)OCc1ccccc1)CC2(C)C` (configuration not stated), the EC50 was over 251 µM and the IC50 turned out to be 53.7 µM.

Take `CCOC(=O)/C(C(=O)c1ccc[nH]1)=C1/CCCN1C`: the EC50 was over 200 µM and the IC50 is 129 µM.

In the case of `CC1=C(C)[C@]2(C)C(C)[C@]13Cn1c(=O)n(-c4ccccc4)c(=O)n1[C@@]32C` (some centres not stated), the EC50 is over 77.6 µM and the IC50 was found to be 51.3 µM.

Consider `CC(C)CCCC(C)C1CCC2[C@@H]3CCC4C[C@@H](CCC=C(c5cc(Br)c(O)c(C(=O)O)c5)c5cc(Br)c(O)c(C(=O)O)c5)CC[C@]4(C)C3CC[C@]12C` (some centres not stated), for which the EC50 was 20.9 µM and the IC50 was 282 µM.

On to `COc1ccc2c(c1)c1c3c(ccc4ncn2c43)N(CCN(C)C)CCN=1`, for which the EC50 is over 20 µM and the IC50 stood at 0.324 µM.

As for `CC1(C)CC(=O)C(C(CC(c2ccccc2)c2cc3c(cc2O)OCO3)C2=C(O)CC(C)(C)CC2=O)=C(O)C1` (configuration not stated), the EC50 is over 200 µM and the IC50 turned out to be 112 µM.

Regarding `COc1ccc(/C=C/C(=O)CCN2CCN(CCC(=O)/C=C/c3ccc(OC)cc3)CC2)cc1`, the EC50 is over 151 µM and the IC50 amounted to 1.58 µM.

For `O=CN/C=C/c1ccccc1`, the EC50 is over 200 µM and the IC50 is over 200 µM.

For the compound `COC(=O)CCC(C)C1CCC2[C@@H]3CC[C@@H]4CC(=O)CC[C@]4(C)C3CC[C@]12C` (some centres not stated), the EC50 is over 5.13 µM and the IC50 was over 5.13 µM.

As to `Cc1cc(-c2ccccc2)oc(=O)c1NC(=O)c1ccccc1`, the EC50 was over 200 µM and the IC50 turned out to be 97.7 µM.

On to `COC(=O)c1ccn2c(N(C)C)[n+]3ccc(C(=O)OC)cc3c2c1`, for which the EC50 was over 100 µM and the IC50 was over 100 µM.

For `O=C(CP(c1ccccc1)c1ccccc1)c1cccc(C(=O)CP(c2ccccc2)c2ccccc2)c1`, the EC50 is over 200 µM and the IC50 is 33.1 µM.

As for `N#C/C=C/c1cccc(C#N)c1`, the EC50 was over 46.8 µM and the IC50 is over 46.8 µM.

Consider `NC(N)=NS(=O)(=O)c1ccc(NC(=O)c2cccc3c(NNc4ccc(S(N)(=O)=O)cc4)c4ccccc4nc23)cc1`, for which the EC50 is over 200 µM and the IC50 amounted to 28.2 µM.

Take `CCOC(=O)Nc1ccc2nc(N3CCCCC3)sc2c1`: the EC50 was over 85.1 µM and the IC50 came to 6.31 µM.

In the case of `COC(=O)[C@@H]1COC(CC/C(C)=C/c2ccccc2)=N1`, the EC50 is over 200 µM and the IC50 worked out at 44.7 µM.

In the case of `CC(C)/C(Cl)=N/OC(=O)Nc1ccc(Br)cc1`, the EC50 was over 20 µM and the IC50 turned out to be 3.72 µM.

In the case of `NC(N)=NS(N)(=O)=O`, the EC50 is over 200 µM and the IC50 was over 200 µM.

For `CC(C)(C)N=C(N)NC#N`, the EC50 is over 200 µM and the IC50 is over 200 µM.

On to `CSc1scc2c1/C(=N/NC(N)=O)CCC2`, for which the EC50 is over 200 µM and the IC50 came out at 91.2 µM.

With `Cc1cc(C)n(-c2ccnc3cc(Cl)ccc23)n1`, the EC50 is over 501 µM and the IC50 turned out to be 214 µM.

In the case of `COc1ccc(CN2C(=S)SC(c3ccc(Cl)cc3)N2c2ccc(OC)cc2)cc1` (configuration not stated), the EC50 is over 200 µM and the IC50 is over 200 µM.

For `[N-]=[N+]=Nc1c(-c2ccccc2)c(=O)n(-c2ccccc2)c2ccccc12`, the result was inactive.

With `CCC1CN2CCC3(c4ccccc4)CC(C(=O)OC)=CC1C23` (configuration not stated), the EC50 is over 251 µM and the IC50 was found to be 38.9 µM.

In the case of `CC1(c2ccc[n+](Cc3ccccc3)c2)OCCO1`, the EC50 was over 398 µM and the IC50 is 380 µM.

Take `C(=Nc1cnc2ccccc2c1)c1ccncc1`: the EC50 was over 288 µM and the IC50 stood at 66.1 µM.

In the case of `O=C1N[C@@H]2CCCC[C@@H]2C12CCCCC2`, the result was inactive.

`CCOC(=O)C1=[N+]([O-])OC2=C(O)CCCC21` (configuration not stated): the result was inactive.

As to `COc1cc2c3c(c1)SCC(=O)N3CCN2`, the EC50 was over 200 µM and the IC50 is over 100 µM.

On to `Cc1ccc(C(=O)OC(C)C)cc1N=NN(C)C`, for which the EC50 is over 55 µM and the IC50 was over 55 µM.

`O=C(OCCNC(=O)N1CCOCC1)OCCNC(=O)N1CCOCC1`: the EC50 was over 200 µM and the IC50 was over 200 µM.

For the compound `NC(N)=NS(=O)(=O)c1ccc(NNc2c3ccccc3nc3c(C(=O)Nc4ccc(S(=O)(=O)Nc5ncccn5)cc4)cccc23)cc1`, the EC50 was over 100 µM and the IC50 came out at 22.9 µM.

In the case of `Cc1cc(N)c(C)c2c1[nH]c1ccc(O)cc12`, the EC50 was over 302 µM and the IC50 came to 28.8 µM.

Turning to `O=C1OC2C(O)C3CC1C2O3` (configuration not stated), the EC50 was over 1580 µM and the IC50 was over 1580 µM.

Regarding `COc1ccc(-c2cc(NC(=O)c3cnccn3)c(=O)oc2C)cc1`, the EC50 was over 200 µM and the IC50 was 170 µM.

With `CNC(=O)NC(CCCCNC(=O)OCc1ccccc1)C(=O)OCc1ccccc1` (configuration not stated), the EC50 is over 83.2 µM and the IC50 was 39.8 µM.

Take `NC1=Nc2ccccc2Sc2nccn21`: the EC50 is over 200 µM and the IC50 turned out to be 28.8 µM.

As to `CN(C)c1ccc(C(=CC=C2C(=O)NC(=O)NC2=O)c2ccc(N(C)C)cc2)cc1`, the EC50 is over 4.9 µM and the IC50 was over 4.9 µM.

On to `Cc1ccc(S(=O)(=O)N=NC=C2c3ccccc3N(O)c3ccccc32)cc1`, for which the result was inactive.

As for `O=C1CN(c2cccc(Cl)c2)C(=O)CN1CCN1CC(=O)N(c2cccc(Cl)c2)CC1=O`, the EC50 is over 200 µM and the IC50 was over 200 µM.

In the case of `CCN(CC)CCOc1ccc(C(C#N)=C(c2ccccc2)c2ccccc2)cc1`, the EC50 was over 200 µM and the IC50 was determined as 2.57 µM.

In the case of `CCOC(=O)C1=C(Nc2ccc(Cl)c(Cl)c2)OC/C1=N\NS(=O)(=O)c1ccc(C)cc1`, the EC50 was over 74.1 µM and the IC50 amounted to 64.6 µM.

With `CCN(CC)c1c(C(=O)/C=C/c2ccc(OC)cc2)c(-c2ccccc2)nn(C)c1=O`, the EC50 is over 9.12 µM and the IC50 is over 9.12 µM.

As to `C=CC/C(C(=O)OC)=C(/C(=O)OC)N(CCC)CCC`, the EC50 is over 200 µM and the IC50 worked out at 33.9 µM.
